Assay: xn = mol fraction of the nth substance listed
Conditions: 101 kPa, Liquid, mechanical oscillator

CC(C)OC(C)C [diisopropyl ether] + CO
mass density [kg/m3]
Conditions | 293.15 K | 298.15 K | 303.15 K | 308.15 K | 313.15 K | 318.15 K
x2 = 0 | 723.86 | 718.3 | 712.68 | 707.06 | 701.5 | 696.98
x2 = 0.0423 | 725.34 | 720.12 | – | 708.61 | 702.92 | 698.39
x2 = 0.0424 | 725.34 | 720.13 | 714.26 | 708.63 | 702.94 | 698.41
x2 = 0.082 | 727.36 | 722.06 | 716.26 | 710.51 | 704.95 | 699.97
x2 = 0.0822 | 727.37 | 722.07 | 716.27 | 710.52 | 704.96 | 699.98
x2 = 0.1171 | 729.04 | 723.73 | 717.96 | 712.26 | 706.79 | 701.61
x2 = 0.1271 | 729.5 | 724.19 | 718.43 | 712.74 | 707.29 | 702.07
x2 = 0.1827 | 731.99 | 726.76 | 720.98 | 715.35 | 709.93 | 704.6
x2 = 0.2162 | 733.44 | 728.28 | 722.47 | 716.86 | 711.42 | 706.1
x2 = 0.251 | 734.94 | 729.84 | 723.99 | 718.4 | 712.93 | 707.66
x2 = 0.3298 | 738.41 | 733.39 | 727.46 | 721.88 | 716.3 | 711.24
x2 = 0.3577 | 739.69 | – | 728.71 | 723.14 | 717.52 | 712.55
x2 = 0.445 | – | – | 733.04 | – | – | –
x2 = 0.4525 | 744.38 | 739.19 | 733.18 | 727.64 | 721.96 | 717.21
x2 = 0.522 | 748.28 | – | 736.82 | 731.34 | 725.66 | 720.99
x2 = 0.5543 | 750.25 | 744.6 | 738.65 | 733.22 | 727.56 | 722.88
x2 = 0.609 | 753.85 | 747.88 | 742.01 | 736.67 | 731.07 | 726.33
x2 = 0.6529 | 756.99 | 750.75 | 744.97 | 739.73 | 734.2 | 729.37
x2 = 0.7504 | 764.78 | 758.11 | 752.58 | 747.61 | 742.24 | 737.12
x2 = 0.804 | 769.56 | 762.86 | 757.48 | 752.69 | – | –
x2 = 0.807 | 769.84 | 763.14 | 757.78 | – | 747.67 | 742.4
x2 = 0.8727 | 776.23 | 769.84 | 764.66 | 760.14 | 754.77 | 749.37
x2 = 0.9253 | 781.7 | 775.96 | 770.89 | 766.58 | 761.06 | 755.7
x2 = 0.9527 | 784.68 | 779.45 | 774.42 | 770.23 | 764.57 | 759.3
x2 = 0.9773 | 787.42 | 782.77 | 777.76 | 773.67 | 767.86 | 762.7
x2 = 0.989 | – | 784.41 | 779.41 | 775.36 | 769.46 | 764.38
x2 = 0.9964 | – | – | – | 776.46 | 770.49 | –

CC(C)OC(C)C [diisopropyl ether] + CC(C)O
mass density [kg/m3]
Conditions | 293.15 K | 298.15 K | 303.15 K | 308.15 K | 313.15 K | 318.15 K
x1 = 0.0277 | 784.54 | 780.15 | 775.28 | 770.51 | 766.2 | –
x1 = 0.0507 | 783.14 | 778.52 | 773.7 | 769.05 | 764.54 | 759.23
x1 = 0.051 | 783.12 | – | 773.67 | 769.05 | 764.52 | 759.21
x1 = 0.0717 | 781.73 | 776.95 | 772.14 | 767.56 | 762.92 | 757.56
x1 = 0.1528 | 775.51 | 770.53 | 765.48 | 760.84 | 756.03 | 750.75
x1 = 0.1938 | 772.05 | – | 761.88 | 757.06 | – | –
x1 = 0.2029 | 771.28 | 766.41 | 761.07 | 756.2 | 751.49 | 746.41
x1 = 0.245 | 767.66 | 762.95 | 757.34 | 752.2 | 747.64 | 742.79
x1 = 0.297 | – | 758.78 | 752.77 | 747.3 | 742.94 | 738.39
x1 = 0.3068 | 762.42 | 758.01 | 751.96 | 746.39 | 742.11 | 737.61
x1 = 0.398 | 755.24 | 751.23 | 744.62 | 738.38 | 734.56 | 730.51
x1 = 0.4609 | 750.87 | 747.02 | 740.13 | 733.51 | 729.95 | 726.09
x1 = 0.5434 | 745.99 | 742.15 | 735.09 | 728.12 | 724.76 | 720.95
x1 = 0.6032 | 743.03 | 739.05 | 732 | 724.92 | 721.58 | 717.67
x1 = 0.6371 | 741.54 | 737.43 | 730.43 | 723.33 | 719.96 | 715.94
x1 = 0.701 | 738.99 | – | – | – | – | –
x1 = 0.754 | 737.02 | 732.28 | 725.68 | 718.81 | 715.06 | 710.5
x1 = 0.791 | – | 730.68 | 724.25 | 717.51 | 713.58 | 708.82
x1 = 0.8296 | 734.1 | 728.95 | 722.69 | 716.11 | 711.97 | 707.02
x1 = 0.8903 | 731.31 | 725.97 | 719.93 | 713.61 | 709.12 | 703.97
x1 = 0.9113 | 730.18 | 724.83 | 718.84 | 712.6 | 707.99 | 702.81
x1 = 0.9547 | 727.49 | 722.2 | 716.27 | 710.18 | 705.35 | 700.18
x1 = 0.973 | 726.17 | 720.98 | 715.03 | 708.99 | 704.08 | 698.96
x1 = 0.9771 | 725.86 | 720.69 | 714.73 | 708.7 | 703.78 | 698.67
x1 = 1 | 723.86 | 718.3 | 712.68 | 707.06 | 701.5 | 696.98
